Assay results: PubChem BioAssay AID651709 (Sanford-Burnham Center for Chemical Genomics, 2012)

Biological target: Probable nicotinate-nucleotide adenylyltransferase (Staphylococcus aureus (strain N315)) (UniProt P65502)
Test: potency of S. aureus NadD blockers – biochemical, colorimetric, set 2, dose response (AID 651709)
Settings: purified S. aureus NadD, colorimetric enzyme assay

- IC50: 50 µM
Structure (SMILES): C[c-]1[c-](C)[c-](C)[c-](C)[c-]1C.[Fe].c1cc2nccc(N3CCCC3)[c-]2c1 (stereo unspecified)
